From patent US20120129833A1, “CYCLIC KETOENOLS FOR THERAPY” (BAYER PHARMA AKTIENGESELLSCHAFT, priority 2010, published 2012)

Columns and labels:
[1] = molecular target: T1, recombinant human ACC1 (acetyl-CoA carboxylase 1) (Homo sapiens, UniProt Q13085); assay: Human ACC1 enzyme assay (HTRF ADP detection); format: biochemical; conditions: 50 μM ATP, 20 μM acetyl-CoA, 15 min pre-incubation, 20 min at 22° C.; read-out: ACC 1 IC50;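 further: ADP by-product quantified by competitive HTRF immunoassay with europium cryptate anti-ADP antibody and d2-labelled ADP, read after 1 h binding at 22 °C, enzyme near 2.5 ng/µl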
T1 construct: NM_198834, amino acids 39—end; FLAG (C); made in house; host or cells: baculovirus-transfected insect cells (Hi5)
Protocol: The basic principle of the assay is the measurement of adenosine diphosphate (ADP), which is formed as a by-product, by means of an HTRF®-based competitive immunoassay (HTRF=Homogeneous Time Resolved Fluorescence).
The amount of complex of d2-labelled ADP and europium cryptate-labelled anti-ADP antibody was then determined by measuring the resonance energy transfer of europium cryptate to d2.

[2] = molecular target: T2, ACC2 (acetyl-CoA carboxylase 2) (Homo sapiens, UniProt O00763); assay: Human ACC2 enzyme assay (HTRF ADP detection); format: biochemical; conditions: 20 μM acetyl-CoA, 15 min pre-incubation, 20 min at 22° C.; read-out: ACC 2 IC50
T2 construct: catalogue no; 50201, amino acids 39—end, expressed in baculovirus-transfected Sf9 insect cells; His (C); purchased BPS Bioscience (San Diego, Calif.) 50201; host or cells: baculovirus-transfected Sf9 insect cells
T2 sequence (O00763 39-2458 limits assumed): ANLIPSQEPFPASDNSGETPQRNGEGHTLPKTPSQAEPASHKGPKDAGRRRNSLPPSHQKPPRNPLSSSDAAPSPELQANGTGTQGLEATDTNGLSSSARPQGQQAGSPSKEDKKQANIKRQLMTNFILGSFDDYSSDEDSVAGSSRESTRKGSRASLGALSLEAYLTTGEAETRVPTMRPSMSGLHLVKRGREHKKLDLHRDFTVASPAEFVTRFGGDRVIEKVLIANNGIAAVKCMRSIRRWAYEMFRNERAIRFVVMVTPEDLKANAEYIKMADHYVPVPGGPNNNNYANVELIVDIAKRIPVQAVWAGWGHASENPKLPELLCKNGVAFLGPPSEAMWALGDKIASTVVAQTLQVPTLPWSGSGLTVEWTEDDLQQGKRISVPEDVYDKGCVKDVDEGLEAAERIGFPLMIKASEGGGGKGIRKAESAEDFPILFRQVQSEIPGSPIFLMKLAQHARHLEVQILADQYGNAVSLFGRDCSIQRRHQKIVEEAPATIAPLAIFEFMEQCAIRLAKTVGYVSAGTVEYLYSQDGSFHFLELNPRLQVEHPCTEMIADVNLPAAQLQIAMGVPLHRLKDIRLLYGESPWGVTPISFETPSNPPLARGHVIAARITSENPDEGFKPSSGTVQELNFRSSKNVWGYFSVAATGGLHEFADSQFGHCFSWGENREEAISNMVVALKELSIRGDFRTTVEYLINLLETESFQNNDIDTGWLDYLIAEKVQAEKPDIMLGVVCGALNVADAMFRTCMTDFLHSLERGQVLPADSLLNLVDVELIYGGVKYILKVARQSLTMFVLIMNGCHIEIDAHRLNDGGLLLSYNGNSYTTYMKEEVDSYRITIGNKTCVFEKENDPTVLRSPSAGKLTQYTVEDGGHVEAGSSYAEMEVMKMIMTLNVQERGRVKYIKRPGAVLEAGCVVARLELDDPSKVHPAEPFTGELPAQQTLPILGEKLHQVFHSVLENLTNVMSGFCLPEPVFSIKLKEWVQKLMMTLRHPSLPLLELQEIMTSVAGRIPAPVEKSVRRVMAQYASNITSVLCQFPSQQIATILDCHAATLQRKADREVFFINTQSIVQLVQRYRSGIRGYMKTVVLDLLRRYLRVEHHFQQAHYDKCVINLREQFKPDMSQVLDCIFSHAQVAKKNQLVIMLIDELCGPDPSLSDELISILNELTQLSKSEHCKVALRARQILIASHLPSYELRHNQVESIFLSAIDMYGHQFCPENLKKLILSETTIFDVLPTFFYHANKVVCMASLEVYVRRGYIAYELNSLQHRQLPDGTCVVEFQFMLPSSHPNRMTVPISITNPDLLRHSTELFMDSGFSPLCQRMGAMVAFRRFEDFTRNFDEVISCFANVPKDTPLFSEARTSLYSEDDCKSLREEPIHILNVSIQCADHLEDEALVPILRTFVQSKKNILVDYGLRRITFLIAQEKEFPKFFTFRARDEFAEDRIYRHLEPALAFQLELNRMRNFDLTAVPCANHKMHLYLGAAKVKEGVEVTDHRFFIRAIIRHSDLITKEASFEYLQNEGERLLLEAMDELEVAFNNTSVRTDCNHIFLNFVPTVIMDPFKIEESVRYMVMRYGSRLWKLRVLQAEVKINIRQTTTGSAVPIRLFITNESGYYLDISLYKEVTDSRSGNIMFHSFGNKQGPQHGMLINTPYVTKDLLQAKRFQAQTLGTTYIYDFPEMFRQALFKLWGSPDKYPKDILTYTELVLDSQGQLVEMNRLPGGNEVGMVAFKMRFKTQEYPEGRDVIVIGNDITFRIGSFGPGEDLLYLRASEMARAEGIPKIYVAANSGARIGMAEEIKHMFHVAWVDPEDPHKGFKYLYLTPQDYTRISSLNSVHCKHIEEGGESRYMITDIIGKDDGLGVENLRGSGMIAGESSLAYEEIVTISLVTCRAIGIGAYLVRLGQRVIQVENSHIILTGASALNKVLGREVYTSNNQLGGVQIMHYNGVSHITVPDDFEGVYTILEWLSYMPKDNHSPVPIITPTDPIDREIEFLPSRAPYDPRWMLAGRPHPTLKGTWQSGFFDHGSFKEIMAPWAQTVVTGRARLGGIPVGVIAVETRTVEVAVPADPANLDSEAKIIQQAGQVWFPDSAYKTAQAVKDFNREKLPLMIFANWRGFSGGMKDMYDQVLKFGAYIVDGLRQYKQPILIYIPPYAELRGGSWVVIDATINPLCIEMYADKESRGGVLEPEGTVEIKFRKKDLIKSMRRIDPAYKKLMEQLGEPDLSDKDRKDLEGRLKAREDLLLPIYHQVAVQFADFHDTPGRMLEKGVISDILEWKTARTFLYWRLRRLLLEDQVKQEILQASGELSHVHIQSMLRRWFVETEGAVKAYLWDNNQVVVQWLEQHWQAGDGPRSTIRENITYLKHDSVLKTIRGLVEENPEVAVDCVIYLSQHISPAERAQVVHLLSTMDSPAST

| IC50 [1] | IC50 [2] | Compound |
| --- | --- | --- |
| 420 nM | 4.12 µM | Cc1ccc(-c2ccc(Cl)cc2)cc1-c1c(O)c2ccc(Cl)cc2[nH]c1=O [Example 9-11, 7-chloro-3-(4′-chloro-4-methylbiphenyl-3-yl)-4-hydroxyquinolin-2(1H)-one] |
| 863 nM | > 20 µM | Cc1ccc(-c2ccc(F)cc2)cc1-c1c(O)c2ccc(F)cc2[nH]c1=O [Example 9-9, 7-fluoro-3-(4′-fluoro-4-methylbiphenyl-3-yl)-4-hydroxyquinolin-2(1H)-one] |
| 500 nM | > 20 µM | COC1CCC2(CC1)OC(=O)C(c1cc(-c3ccccc3Cl)ccc1C)=C2O (stereo not shown) [Example 2-7, 3-(2′-chloro-4-methylbiphenyl-3-yl)-4-hydroxy-8-methoxy-1-oxaspiro[4.5]dec-3-en-2-one] |
| 1590 nM | 5.34 µM | Cc1cc(C)c(-c2ccc(Cl)cc2)cc1C1=C(O)CC(C)(C)CC1=O [Example 7-3, 2-(4′-chloro-4,6-dimethylbiphenyl-3-yl)-3-hydroxy-5,5-dimethylcyclohex-2-en-1-one] |
| 216 nM | 3.53 µM | COC1CCC2(CC1)OC(=O)C(c1cc(-c3ccc(Cl)cc3)ccc1C)=C2O (stereo not shown) [Example 2-39, 3-(4′-chloro-4-methylbiphenyl-3-yl)-4-hydroxy-8-methoxy-1-oxaspiro[4.5]dec-3-en-2-one] |
| 913 nM | > 20 µM | O=C1C(c2cc(-c3ccc(Cl)cc3)ccc2Cl)C(=O)N2C3CCC(C3)N12 (stereo not shown) [Example 8-17, 2-(4,4′-dichlorobiphenyl-3-yl)tetrahydro-1H-5,8-methanopyrazolo[1,2-a]pyridazine-1,3(2H)-dione] |
| 467 nM | 0.654 µM | Cc1ccc(-c2ccc(Cl)cc2)cc1C1=C(O)C2(CCCCCC2)CC1=O [Example 6-7, 3-(4′-chloro-4-methylbiphenyl-3-yl)-4-hydroxyspiro[4.6]undec-3-en-2-one] |
| 190 nM | 1.5 µM | Cc1ccc(-c2ccc(Cl)cc2)c(C)c1C1=C(O)C2(CCCCC2)OC1=O [Example 2-4, 3-(4′-chloro-2,4-dimethylbiphenyl-3-yl)-4-hydroxy-1-oxaspiro[4.5]dec-3-en-2-one] |
| 319 nM | > 20 µM | Cc1ccc(-c2ccc(Cl)cc2)cc1C1=C(O)CC(C)(C)NC1=O [Example 9-1, 3-(4′-chloro-4-methylbiphenyl-3-yl)-4-hydroxy-6,6-dimethyl-5,6-dihydropyridin-2(1H)-one] |
| 640 nM | > 20 µM | CC1(F)CN2C(=O)C(c3cc(-c4ccc(Cl)cc4)ccc3Cl)C(=O)N2C1 [Example 8-13, 2-(4,4′-dichlorobiphenyl-3-yl)-6-fluoro-6-methyldihydro-1H,5H-pyrazolo[1,2-a]pyrazole-1,3(2H)-dione] |
| 137 nM | 1.93 µM | COCC1CCC2(CC1)OC(=O)C(c1cc(-c3ccc(Cl)cc3)ccc1C)=C2O (stereo not shown) [Example 2-20, 3-(4′-chloro-4-methylbiphenyl-3-yl)-4-hydroxy-8-(methoxymethyl)-1-oxaspiro[4.5]dec-3-en-2-one] |
| 2400 nM | > 20 µM | Cc1ccc(-c2ccc(Cl)cc2)cc1C1C(=O)N(C)N(C)C1=O [Example 8-14, 4-(4′-chloro-4-methylbiphenyl-3-yl)-1,2-dimethyl-1H-pyrazole-3,5(2H,4H)-dione] |
| 97 nM | 1.67 µM | Cc1ccc(-c2ccc(Cl)cc2)cc1C1=C(O)C2(CCCCC2)SC1=O [Example 3-2, 3-(4′-chloro-4-methylbiphenyl-3-yl)-4-hydroxy-1-thiaspiro[4.5]dec-3-en-2-one] |

The remaining lines, values behind:

| Compound | IC50 [1] | IC50 [2] |
| --- | --- | --- |
| Cc1ccc(-c2ccc(Cl)cc2)cc1C1=C(O)C2(CCCCCC2)OC1=O [Example 2-38, 3-(4′-chloro-4-methylbiphenyl-3-yl)-4-hydroxy-1-oxaspiro[4.6]undec-3-en-2-one] | 416 nM | 3.78 µM |
| COC1CCC2(CC1)OC(=O)C(c1cc(-c3ccc(Cl)cc3)c(C)cc1C)=C2O (stereo not shown) [Example 2-44, 3-(4′-chloro-4,6-dimethylbiphenyl-3-yl)-4-hydroxy-8-methoxy-1-oxaspiro[4.5]dec-3-en-2-one] | 297 nM | 0.16 µM |
| Cc1cc(C)c(-c2ccc(Cl)cc2)c(C)c1C1=C(O)C(C)(C)OC1=O [Example 2-5, 3-(4′-chloro-2,4,6-trimethylbiphenyl-3-yl)-4-hydroxy-5,5-dimethylfuran-2(5H)-one] | 1480 nM | 5.72 µM |
| CC1(C)OC(=O)C(c2cc(-c3ccc(Cl)cc3)ccc2Cl)=C(O)C1(C)C [Example 10-1, 3-(4,4′-dichlorobiphenyl-3-yl)-4-hydroxy-5,5,6,6-tetramethyl-5,6-dihydro-2H-pyran-2-one] | 1370 nM | > 20 µM |
| Cc1ccc(-c2ccc(Cl)cc2)cc1C1=C(O)C2(CCOCC2)OC1=O [Example 2-37, 3-(4′-chloro-4-methylbiphenyl-3-yl)-4-hydroxy-1,8-dioxaspiro[4.5]dec-3-en-2-one] | 342 nM | > 20 µM |
| Cc1ccc(-c2ccc(F)c(F)c2)cc1C1=C(O)C2(CCOCC2)NC1=O [Example 1-37, 3-(3′,4′-difluoro-4-methylbiphenyl-3-yl)-4-hydroxy-8-oxa-1-azaspiro[4.5]dec-3-en-2-one] | 810 nM | > 20 µM |
| O=C1C(c2cc(-c3ccc(F)cc3F)ccc2Cl)C(=O)N2CCOCCN12 [Example 8-11, 8-(4-chloro-2′,4′-difluorobiphenyl-3-yl)tetrahydro-7H-pyrazolo[1,2-d][1,4,5]oxadiazepine-7,9(8H)-dione] | 713 nM | > 20 µM |
| Cc1ccc(-c2ccc(Cl)cc2)cc1C1=C(O)C2(CCCC(C)C2)NC1=O (stereo not shown) [Example 1-82, 3-(4′-chloro-4-methylbiphenyl-3-yl)-4-hydroxy-7-methyl-1-azaspiro[4.5]dec-3-en-2-one] | 542 nM | 0.433 µM |
| Cc1ccc(-c2ccc(Cl)cc2)cc1C1=C(O)C2(CCCOC2)NC1=O (stereo not shown) [Example 1-5, 3-(4′-chloro-4-methylbiphenyl-3-yl)-4-hydroxy-7-oxa-1-azaspiro[4.5]dec-3-en-2-one] | 287 nM | 8.24 µM |
| Cc1ccc(-c2ccc(Cl)cc2)c(C)c1C1=C(O)C2(CCC(C)CC2)NC1=O (stereo not shown) [Example 1-4, 3-(4′-chloro-2,4-dimethylbiphenyl-3-yl)-4-hydroxy-8-methyl-1-azaspiro[4.5]dec-3-en-2-one] | 460 nM | 0.33 µM |
| COC1CCC2(CC1)NC(=O)C(c1cc(-c3ccc(Cl)cc3)c(C)cc1C)=C2O (stereo not shown) [Example 1-7, 3-(4′-chloro-4,6-dimethylbiphenyl-3-yl)-4-hydroxy-8-methoxy-1-azaspiro[4.5]dec-3-en-2-one] | 1700 nM | 0.087 µM |
| O=C1NC2(CCC3(CC2)OCCCO3)C(O)=C1c1cc(-c2ccc(Cl)cc2)ccc1Cl [Example 1-58, 3-(4,4′-dichlorobiphenyl-3-yl)-4-hydroxy-9,13-dioxa-1-azadispiro[4.2.5.2]pentadec-3-en-2-one] | 362 nM | 11.5 µM |
| CO[C@H]1CC[C@]2(CC1)NC(=O)C(c1c(C)cc(C)c(-c3ccc(F)cc3)c1C)=C2O [Example 1-42, (5s,8s)-3-(4′-fluoro-2,4,6-trimethylbiphenyl-3-yl)-4-hydroxy-8-methoxy-1-azaspiro[4.5]dec-3-en-2-one] | > 20000 nM | 0.669 µM |
| O=C1C(c2cc(-c3ccc(Cl)c(Cl)c3)ccc2Cl)C(=O)N2CCOCCN12 [Example 8-10, 8-(3′,4,4′-trichlorobiphenyl-3-yl)tetrahydro-7H-pyrazolo[1,2-d][1,4,5]oxadiazepine-7,9(8H)-dione] | 1130 nM | > 20 µM |
| Cc1ccc(-c2ccc(Cl)cc2)c(C)c1C1=C(O)C2(CCOCC2)NC1=O [Example 1-1, 3-(4′-chloro-2,4-dimethylbiphenyl-3-yl)-4-hydroxy-8-oxa-1-azaspiro[4.5]dec-3-en-2-one] | 460 nM | 8.8 µM |
| CCc1cc(-c2ccccc2)cc(Cl)c1C1C(=O)N2CCOCCN2C1=O [Example C-1, reference compound] | > 20000 nM | > 20 µM |
| Cc1ccc(-c2ccc(Cl)cc2)cc1C1=C(O)C2(CCC3(CC2)OC(C)C(C)O3)NC1=O (stereo not shown) [Example 1-64, 11-(4′-chloro-4-methylbiphenyl-3-yl)-12-hydroxy-2,3-dimethyl-1,4-dioxa-9-azadispiro[4.2.4.2]tetradec-11-en-10-one] | 985 nM | 16.4 µM |
| Cc1ccc(-c2ccc(F)cc2)c(C)c1C1=C(O)C2(CCCCC2)NC1=O [Example 1-40, 3-(4′-fluoro-2,4-dimethylbiphenyl-3-yl)-4-hydroxy-1-azaspiro[4.5]dec-3-en-2-one] | 1200 nM | 15 µM |
| Cc1cc(C)c(-c2ccc(Cl)cc2)cc1C1=C(O)C2(CCCCCC2)OC1=O [Example 2-43, 3-(4′-chloro-4,6-dimethylbiphenyl-3-yl)-4-hydroxy-1-oxaspiro[4.6]undec-3-en-2-one] | 504 nM | 0.33 µM |
| Cc1ccc(-c2ccc(Cl)cc2)cc1C1=C(O)C2(Cc3ccccc3C2)NC1=O [Example 1-25, 4′-(4′-chloro-4-methylbiphenyl-3-yl)-3′-hydroxy-1,3-dihydrospiro[indene-2,2′-pyrrol]-5′(1′H)-one] | 495 nM | 3.36 µM |
| COC1CCC2(CC1)NC(=O)C(c1c(C)cc(-c3ccc(Cl)cc3)cc1C)=C2O (stereo not shown) [Example C-2, reference compound] | > 20000 nM | > 20 µM |
| Cc1cc(C)c(-c2ccc(Cl)cc2)c(C)c1C1=C(O)C2(CCCCC2)CC1=O [Example 6-9, 3-(4′-chloro-2,4,6-trimethylbiphenyl-3-yl)-4-hydroxyspiro[4.5]dec-3-en-2-one] | > 20000 nM | 0.387 µM |
